According to article PMC7247319, “The mitochondria-targeted peptide SS-31 binds lipid bilayers and modulates surface electrostatics as a key component of its mechanism of action” (The Journal of Biological Chemistry, 2020):
Where a SMILES comes first, the peptide text is derived from it. [ ]: non-standard residue; d: D form. Dmt = Cc1cc(O)cc(C)c1C[C@H](N)C(=O)O

System: LUVs containing 20 mol % TOCL or POPG
Assay: Zeta potential measurements of LUVs with increasing peptide
Conditions: LUVs 100 μM total lipid, n = 3
Description: Figure 3. SS-31 binding and surface electrostatics. A, binding isotherms. Peptide was titrated with LUVs of the indicated composition (20% TOCL, [SS-31] = 7.5 μM and 20% POPG, [SS-31] = 3.8 μM) at 30-nmol total lipid increments in the presence of different concentrations of added KCl. Values shown are means ± S.D. (error bars) (n = 3), and lines show data fits based on Equation S3. […] B and C, effect of SS-31 binding on surface charge. Measurements of ζ (B) and ANS fluorescence (C) are shown as a function of [SS-31]/[lipid]^eff for membranes containing 20% TOCL and 20% POPG as indicated. Values shown are means ± S.D. (error bars) (n = 3).
To continue this analysis, we determined the relationship between SS-31 binding and surface electrostatics by two complementary approaches. We first performed zeta potential (ζ) measurements of LUVs containing 20 mol % TOCL or POPG with increasing [SS-31] (Fig. 3B). […] As an independent technique, we measured the effect of SS-31 on surface electrostatics using 1-anilinonaphthalene-8-sulfonic acid (ANS), a fluorescent reporter whose binding to anionic bilayers increases as the magnitude of the ψs is reduced, measured as an increase in probe emission intensity ([42]) (Fig. 3C and Fig. S9D). […]

In the case of `Cc1cc(O)cc(C)c1C[C@H](NC(=O)[C@H](N)CCCNC(=N)N)C(=O)N[C@@H](CCCCN)C(=O)N[C@@H](Cc1ccccc1)C(N)=O` [SS-31, D-Arg-2′6′-dimethyl-Tyr-Lys-Phe-NH2] (H-[dR][Dmt]KF-NH2), the “zeta potential (ζ) at saturation with increasing peptide” value is reported as roughly −30 mV.
